ChEMBL document CHEMBL4665850, “Effect of methoxyflavones contained in Kaempferia parviflora on CRE-mediated transcription in PC12D cells” (Bioorg Med Chem Lett, 2020)
Calls of active or inactive are those of the source. No cut-off for these calls is given here.

What was measured:
[1] = Cytotoxicity against rat PC12D cells assessed as reduction in cell viability at 30 uM by MTT assay; assay type: cell-based
PC12D = test: Activation of CRE-mediated transcription in rat PC12D cells transfected with pCRE-firefly luciferase and pRL-null-renilla luciferase assessed as increase in CRE-driven firefly luciferase activity at 30 uM by dual luciferase reporter gene assay; assay type: functional, cell-based
[2] = Effect on transcription in rat PC12D cells transfected with pCRE-firefly luciferase and pRL-null-renilla luciferase assessed as renilla luciferase activity at 30 uM by dual luciferase reporter gene assay; assay type: ADME, cell-based

SMILES	Activity [1]	Activity (PC12D)	Activity [2]
COc1cc(O)c2c(=O)c(OC)c(-c3ccccc3)oc2c1	Non-Toxic	inactive	Non-Toxic
COc1cc(OC)c2c(=O)c(OC)c(-c3ccc(OC)c(OC)c3)oc2c1	Non-Toxic	Active	Non-Toxic
COc1ccc(-c2oc3cc(OC)cc(O)c3c(=O)c2OC)cc1	Non-Toxic	inactive	Non-Toxic
COc1ccc(-c2cc(=O)c3c(O)cc(OC)cc3o2)cc1 [APIGENIN DIMETHYLETHER]	Non-Toxic	inactive	Non-Toxic
COc1cc(OC)c2c(=O)cc(-c3ccccc3)oc2c1 [CHRYSIN DIMETHYL ETHER]	Non-Toxic	Active	Toxic
COc1cc(O)c2c(=O)c(OC)c(-c3ccc(OC)c(OC)c3)oc2c1 [RETUSIN]	Non-Toxic	inactive	Non-Toxic
COc1cc(O)c2c(=O)cc(-c3ccccc3)oc2c1 [TECHTOCHRYSIN]	Non-Toxic	inactive	Non-Toxic
COc1cc(OC)c2c(=O)cc(-c3ccc(OC)c(OC)c3)oc2c1 [TETRAMETHYLLUTEOLIN]	Non-Toxic	Active	Toxic
COc1ccc(-c2cc(=O)c3c(OC)cc(OC)cc3o2)cc1 [TRIMETHYLAPIGENIN]	Non-Toxic	Active	Toxic
